Source: patent US20090274622A1, “NECROSIS AVID TRACER AGENT” (K.U. Leuven Research & Development, priority 2003, published 2009)

Assays:
[1] = tested on: reperfused hepatic infarction; assay: Ex vivo autoradiography of rat liver slices with TTC and H&E staining
[2] = tested on: occlusive myocardial infarction; assay: Ex vivo autoradiography of rabbit heart slices
[3] = tested on: occlusive myocardial infarction; assay: In vivo SPECT imaging of rabbit with myocardial infarction; details: 24 and 48 hours post injection
Description: All animal experiments were conducted with the approval of the institutional ethical committee. • 1. […] Occlusive myocardial infarction: A New-Zealand adult rabbit weighing about 5 kg was sedated with intramuscular injection of a mixed solution of Ketalar (ketamine hydrochloride, Pfizer, Brussels, Belgium) at 15 mg/kg and Rompun (xylazine hydrochloride, Bayer, Leverkusen, Germany) at 2.5 mg/kg. The animal was then anaesthetized with an intravenous bolus injection of Nembutal at 15 mg/kg followed by IV infusion of Nembutal at 0.1 mg/kg/min through an ear vein. Under a cold-light laryngoscope with No. 1 pediatric blade (Riester®, Jungingen, Germany), the animal was intubated with a 3.5-mm endotracheal tube, which was then connected to an artificial ventilator (Mark 7 respirator, Bird Corporation, Palm Springs, Calif.). An open chest surgery of left posterolateral thoracotomy was performed. The pericardium was opened to expose the left circumflex coronary artery (LCX). A loose snare loop of a 3-0 silk suture was applied around the artery and tightened with ligature. The chest was closed after evacuation of the pneumothorax.
Two hours after reperfusion of the myocardial infarction, the rabbit was intravenously injected with 130 MBq MIH via an ear vein.
The rabbit imaging measurements were performed using a two-detector gamma camera (E-cam, Siemens Medical Systems, ErIangen, Germany). […]

[4] = tested on: occlusive myocardial infarction; assay: Tissue radioactivity counting of normal and infarcted rabbit myocardium; details: gamma counting, 48 h
[5] = tested on: reperfused hepatic infarction; assay: Biodistribution of MIH in rats with reperfused hepatic infarction (tissue radioactivity counting); details: for Biodistribution, Blood / Biodistribution, Heart / Biodistribution, Kidneys / Biodistribution, Large intestine / Biodistribution, Lungs / Biodistribution, Muscle / Biodistribution, Necrotic liver / Biodistribution, Normal liver / Biodistribution, Small intestine / Biodistribution, Spleen / Biodistribution, Stomach / Biodistribution, Thyroid / Necrotic liver/Blood ratio / Necrotic liver/Intact liver ratio / Necrotic liver/Muscle ratio: i.v., mean ± SD, n = 3
[6] = tested on: HDL and LDL; details: reference 37; cited from earlier work
[7] = quantification of autoradiography image

Cc1cc(O)c2c(=O)c3c(O)cc(O)c4c5c(O)c([123I])c(O)c6c(=O)c7c(O)cc(C)c8c1c2c(c34)c(c78)c65 [MIH, mono-[^123I]iodohypericin]
autoradiography uptake in intact liver ([1]; 30 min p.i.): Pronounced radioactivity uptake | autoradiography uptake in necrotic regions of infarcted liver lobe ([1]; 30 min p.i.): low uptake of MIH | autoradiography uptake in intact liver ([1]; 24 h p.i.): activity from the intact liver has cleared | autoradiography uptake in necrotic regions of infarcted liver tissue ([1]; 24 h p.i.): relatively high uptake of MIH | autoradiography distribution of radioactive uptake in heart slice [2]: radioactive uptake appears only in the infarcted region | uptake ratio infarcted tissue limited to subendocardial area vs. control tissue [2, 7]: 16 | uptake ratio overall infarcted myocardium vs. intact myocardium [2, 7]: about 6 | whole body SPECT, coronal section [3]: only one hot spot in the anatomical area of the heart | radiotracer concentration in infarcted tissue vs healthy myocardium [4]: 7 fold | uptake in the infarcted region of myocardium [4]: 0.36 % of ID/g | uptake in the normal region of myocardium [4]: 0.05 % of ID/g | concentration ratio necrotic liver vs. blood ([5]; 24 hours p.i.): 17 | concentration ratio necrotic liver vs. muscle ([5]; 24 hours p.i.): 57 | concentration in necrotic liver tissue relative to intact liver tissue ([5]; 24 h p.i.): 3.2 times | in vivo deiodination (thyroid concentration) ([5]; 24 h p.i.): in vivo deiodination of MIH occurs | Biodistribution, Blood ([5]; 30 min p.i.): 1.34 ± 0.38 % of injected dose per gram tissue | Biodistribution, Heart ([5]; 30 min p.i.): 0.47 ± 0.13 % of injected dose per gram tissue | Biodistribution, Kidneys ([5]; 30 min p.i.): 0.35 ± 0.05 % of injected dose per gram tissue | Biodistribution, Large intestine ([5]; 30 min p.i.): 0.03 ± 0.01 % of injected dose per gram tissue | Biodistribution, Lungs ([5]; 30 min p.i.): 1.60 ± 0.58 % of injected dose per gram tissue | Biodistribution, Muscle ([5]; 30 min p.i.): 0.03 ± 0.01 % of injected dose per gram tissue | Biodistribution, Necrotic liver ([5]; 30 min p.i.): 1.91 ± 0.46 % of injected dose per gram tissue | Biodistribution, Normal liver ([5]; 30 min p.i.): 3.80 ± 1.39 % of injected dose per gram tissue | Biodistribution, Small intestine ([5]; 30 min p.i.): 0.09 ± 0.03 % of injected dose per gram tissue | Biodistribution, Spleen ([5]; 30 min p.i.): 2.19 ± 0.18 % of injected dose per gram tissue | Biodistribution, Stomach ([5]; 30 min p.i.): 0.03 ± 0.00 % of injected dose per gram tissue | Biodistribution, Thyroid ([5]; 30 min p.i.): 0.16 ± 0.02 % of injected dose per gram tissue | Necrotic liver/Blood ratio ([5]; 30 min p.i.): 1.44 ± 0.10 | Necrotic liver/Intact liver ratio ([5]; 30 min p.i.): 0.57 ± 0.28 | Necrotic liver/Muscle ratio ([5]; 30 min p.i.): 75.80 ± 16.34 | Biodistribution, Blood ([5]; 24 h p.i.): 0.10 ± 0.01 % of injected dose per gram tissue | Biodistribution, Heart ([5]; 24 h p.i.): 0.24 ± 0.08 % of injected dose per gram tissue | Biodistribution, Kidneys ([5]; 24 h p.i.): 0.18 ± 0.02 % of injected dose per gram tissue | Biodistribution, Large intestine ([5]; 24 h p.i.): 1.47 ± 0.13 % of injected dose per gram tissue | Biodistribution, Lungs ([5]; 24 h p.i.): 1.06 ± 0.30 % of injected dose per gram tissue | Biodistribution, Muscle ([5]; 24 h p.i.): 0.03 ± 0.00 % of injected dose per gram tissue | Biodistribution, Necrotic liver ([5]; 24 h p.i.): 1.71 ± 0.32 % of injected dose per gram tissue | Biodistribution, Normal liver ([5]; 24 h p.i.): 0.55 ± 0.15 % of injected dose per gram tissue | Biodistribution, Small intestine ([5]; 24 h p.i.): 0.27 ± 0.02 % of injected dose per gram tissue | Biodistribution, Spleen ([5]; 24 h p.i.): 0.43 ± 0.07 % of injected dose per gram tissue | Biodistribution, Stomach ([5]; 24 h p.i.): 0.37 ± 0.13 % of injected dose per gram tissue | Biodistribution, Thyroid ([5]; 24 h p.i.): 9.25 ± 3.25 % of injected dose per gram tissue | Necrotic liver/Blood ratio ([5]; 24 h p.i.): 17.40 ± 1.19 | Necrotic liver/Intact liver ratio ([5]; 24 h p.i.): 3.18 ± 0.49 | Necrotic liver/Muscle ratio ([5]; 24 h p.i.): 57.09 ± 4.24 | binding to HDL and LDL in vivo [6]: bind extensively to HDL and LDL

Cc1cc(O)c2c(=O)c3c(O)cc(O)c4c5c(O)cc(O)c6c(=O)c7c(O)cc(C)c8c1c2c(c34)c(c78)c65 [hypericine, hypericin, reference compound]
binding to HDL and LDL in vivo [6]: bind extensively to HDL and LDL
